One may read the IC50 as the concentration that gives 50% inhibition. Low values mean higher potency, high ones lower potency.

Here are results for five compounds from BindingDB's records for doi:10.1016/j.bioorg.2014.05.010 (Ain Shams University, 2014).

For this assay, the target named is Vascular endothelial growth factor receptor 2 (Homo sapiens, UniProt P35968). Briefly: In vitro Inhibition Assay. To be noted: 30 °C. The protocol: Assays are performed for 15 min at 30 °C, with 50 µM of P33-ATP in a final volume of 25 µL. The assays are terminated by spotting 20 µL of the reaction mixture onto a phosphocellulose P81 plate. The P81 plate was washed 3 times for ~15 min each in a 1% phosphoric acid solution to remove excess unreacted P33-ATP.
Chain of Vascular endothelial growth factor receptor 2 (P35968 whole entry): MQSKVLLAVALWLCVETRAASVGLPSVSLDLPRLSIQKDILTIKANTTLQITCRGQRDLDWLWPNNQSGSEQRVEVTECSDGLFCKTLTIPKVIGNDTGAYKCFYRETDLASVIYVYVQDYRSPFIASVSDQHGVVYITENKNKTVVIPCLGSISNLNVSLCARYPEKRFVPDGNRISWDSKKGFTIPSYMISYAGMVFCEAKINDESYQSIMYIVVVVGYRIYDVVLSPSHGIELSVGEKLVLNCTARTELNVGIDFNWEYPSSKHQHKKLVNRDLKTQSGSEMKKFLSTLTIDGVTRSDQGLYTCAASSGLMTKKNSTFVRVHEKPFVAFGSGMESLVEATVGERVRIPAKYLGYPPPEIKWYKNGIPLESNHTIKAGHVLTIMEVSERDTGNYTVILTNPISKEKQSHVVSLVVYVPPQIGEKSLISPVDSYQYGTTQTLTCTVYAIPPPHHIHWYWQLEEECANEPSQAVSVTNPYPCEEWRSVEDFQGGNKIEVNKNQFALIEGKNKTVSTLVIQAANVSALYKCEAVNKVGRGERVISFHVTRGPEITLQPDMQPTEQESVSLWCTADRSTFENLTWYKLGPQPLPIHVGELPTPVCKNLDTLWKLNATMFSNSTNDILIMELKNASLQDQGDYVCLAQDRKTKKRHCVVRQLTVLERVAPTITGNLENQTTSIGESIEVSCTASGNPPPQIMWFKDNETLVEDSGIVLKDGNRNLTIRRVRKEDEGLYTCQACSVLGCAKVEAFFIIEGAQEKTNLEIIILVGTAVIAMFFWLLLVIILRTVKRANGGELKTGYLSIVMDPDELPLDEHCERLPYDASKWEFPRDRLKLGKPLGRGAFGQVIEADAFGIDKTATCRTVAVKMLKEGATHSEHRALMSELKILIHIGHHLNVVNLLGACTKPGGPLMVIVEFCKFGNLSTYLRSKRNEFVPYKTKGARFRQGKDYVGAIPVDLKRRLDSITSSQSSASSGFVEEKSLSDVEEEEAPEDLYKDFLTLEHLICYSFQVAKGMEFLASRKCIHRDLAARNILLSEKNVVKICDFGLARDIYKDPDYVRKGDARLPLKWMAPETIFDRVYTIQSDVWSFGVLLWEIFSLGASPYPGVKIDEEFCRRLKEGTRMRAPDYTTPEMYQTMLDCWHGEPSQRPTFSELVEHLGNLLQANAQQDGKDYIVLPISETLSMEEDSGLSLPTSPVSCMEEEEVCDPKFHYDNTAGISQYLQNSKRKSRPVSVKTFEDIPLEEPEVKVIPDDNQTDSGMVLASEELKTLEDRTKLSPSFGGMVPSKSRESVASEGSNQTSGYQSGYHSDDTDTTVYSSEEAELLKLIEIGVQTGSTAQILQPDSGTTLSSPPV

Consider `COc1ccc(Nc2nc3ccc(NC(=O)c4ccccc4C(=O)O)cc3[nH]c2=O)cc1` [2-((2-((4-Methoxyphenyl)amino)-3-oxo-3,4-dihydroquinoxalin-6-yl)carbamoyl)benzoic acid (IX)], for which the IC50 is 61.8 µM.

`O=C(Nc1ccccc1)Nc1ccc(Nc2cnc3cc([N+](=O)[O-])ccc3n2)cc1` [1-(4-((6-Nitroquinoxalin-2-yl)amino)phenyl)-3-phenylurea (XXIa)] registered a concentration for half-maximal inhibition (IC50) of 268 µM.

Compound `COc1ccc(Nc2cnc3cc(NC(=O)Nc4cccc(C)c4)ccc3n2)cc1` [1-(2-((4-Methoxyphenyl)amino)quinoxalin-6-yl)-3-(m-tolyl) urea (XVIc)] showed a half-maximal inhibitory concentration (IC50) of 210 µM.

Compound `O=C(Nc1ccc(Nc2cnc3cc([N+](=O)[O-])ccc3n2)cc1)Nc1cccc(Cl)c1` [1-(3-Chlorophenyl)-3-(4-((6-nitroquinoxalin-2-yl)amino)-phenyl)urea (XXIb)] displayed an IC50 of 85.4 µM.

The compound `COc1ccc(Nc2nc3ccc(NC(=O)Nc4ccccc4)cc3[nH]c2=O)cc1` [1-(2-((4-Methoxyphenyl)amino)-3-oxo-3,4 dihydroquinoxalin-6-yl)-3-phenylurea (VIIa)] displayed a half-maximal inhibitory concentration (IC50) of 10.3 µM.
